Experimental data taken from US20140179624A1, “CYTOPROTECTIVE DERIVATIVES OF AVICIN D AND METHODS OF MAKING AND USING THEREOF” (Research Development Foundation, priority 2012, published 2014).

What was measured:
NF-κB [1] = assay: TNF-induced p(IL6-κB)350hu.IL6P-Luc luciferase reporter in HEK 293T cells with and without GR (FIG. 3); format: cell-based
Description: FIG. 3 is graph showing the expression of glucocorticoid receptor (GR) in HEK293T cells with and without GR.
However, TNF-induced activation of p(IL6-κB)350hu.IL6P-Luc was inhibited by both avicin D and Dex in HEK 293T cells transfected with GR (FIG. 3). […] This observation supports the notion that avicins are not able to induce GR transactivation.

3T3-L1 cells = assay: Adipogenesis in 3T3-L1 cells; format: cell-based
[2] = system: NF-E2-related factor 2 (Nrf2); settings: redox-dependant manner; cited from earlier work
chemotaxis = assay: Inhibition of chemotaxis; format: cell-based; settings: preliminary data
Description: The compositions described herein contain an effective amount of the one or more avicin derivatives. The amount to be administered can be readily determined by the attending physician based on a variety of factors including, but not limited to, age of the patient, weight of the patient, disease or disorder to be treated, presence of a pre-existing condition, and dosage form to be administered (e.g., immediate release versus modified release dosage form). Typically, the effective amount is from about 0.1 mg/kg/day to about 100 mg/kg/day, more preferably from 0.1 mg/kg/day to 50 mg/kg/day, more preferably from 0.1 mg/kg/day to 25 mg/kg/day, and most preferably from 0.1 mg/kg/day to 10 mg/kg/day. Dosages greater or less than this may be administered depending on the diseases or disorder to be treated.

human preadipocytes = assay: Differentiation of human preadipocytes to mature adipocytes; format: cell-based
NF-κB [3] = settings: redox-dependant manner; cited from earlier work
cell cytotoxicity = settings: screen of Acacia victoriae compounds; U.S. Pat. No. 6,444,233; cited from earlier work
[4] = target: T1, glucocorticoid receptor (GR) (Homo sapiens, UniProt P04150); assay: Phosphorylation of GR Ser-211 (FIG. 4); format: cell-based; settings: even after 16 hours
T1 sequence (P04150 1-777): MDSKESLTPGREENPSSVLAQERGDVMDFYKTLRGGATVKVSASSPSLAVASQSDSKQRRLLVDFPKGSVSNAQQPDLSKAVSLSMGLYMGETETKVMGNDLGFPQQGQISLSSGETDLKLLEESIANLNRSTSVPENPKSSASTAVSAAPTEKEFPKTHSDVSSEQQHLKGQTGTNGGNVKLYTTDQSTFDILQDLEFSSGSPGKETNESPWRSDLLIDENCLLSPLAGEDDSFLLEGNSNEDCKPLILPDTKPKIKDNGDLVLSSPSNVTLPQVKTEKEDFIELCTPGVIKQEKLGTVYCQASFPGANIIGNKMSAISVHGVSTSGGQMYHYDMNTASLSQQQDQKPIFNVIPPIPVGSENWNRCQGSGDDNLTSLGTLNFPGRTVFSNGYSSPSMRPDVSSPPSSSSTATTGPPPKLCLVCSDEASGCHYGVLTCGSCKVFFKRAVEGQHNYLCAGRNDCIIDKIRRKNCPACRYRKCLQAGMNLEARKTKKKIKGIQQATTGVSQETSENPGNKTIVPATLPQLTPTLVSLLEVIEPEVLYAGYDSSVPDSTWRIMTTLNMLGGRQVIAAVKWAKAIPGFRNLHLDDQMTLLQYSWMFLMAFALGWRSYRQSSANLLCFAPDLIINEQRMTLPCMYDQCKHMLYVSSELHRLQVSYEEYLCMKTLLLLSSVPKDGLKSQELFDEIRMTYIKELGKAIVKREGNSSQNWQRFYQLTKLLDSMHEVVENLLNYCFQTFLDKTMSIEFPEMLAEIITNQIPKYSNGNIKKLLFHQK

NF-κB [5] = assay: Inhibition of NF-κB activation (FIG. 2A); format: cell-based; settings: compared with dexamethasone
IL-6 = assay: Expression of constitutive and TNF-induced IL-6 (FIG. 2B); format: cell-based

Q: With C=C[C@](C)(O)CC/C=C(\CO)C(=O)O[C@H]1[C@H](O)[C@@H](O)[C@H](O[C@@](C)(C=C)CC/C=C(\CO)C(=O)O[C@H]2C[C@]3(C(=O)O[C@@H]4O[C@H](CO)[C@@H](O)[C@H](O)[C@H]4O[C@@H]4O[C@@H](C)[C@H](O[C@@H]5O[C@@H](CO)[C@H](O)[C@H]5O)[C@@H](O[C@@H]5O[C@H](CO)[C@@H](O)[C@H](O)[C@H]5O)[C@H]4O)[C@H](O)C[C@]4(C)C(=CC[C@@H]5[C@@]6(C)CC[C@H](O[C@@H]7O[C@H](CO[C@@H]8O[C@H](C)[C@H](O)[C@H](O)[C@H]8O[C@@H]8OC[C@@H](O)[C@H](O)[C@H]8O)[C@@H](O)[C@H](O)[C@H]7NC(C)=O)C(C)(C)[C@@H]6CC[C@]54C)[C@@H]3CC2(C)C)O[C@@H]1C [Avicin D] as the compound, how does the “TNF-induced activation of p(IL6-κB)350hu.IL6P-Luc” value (NF-κB [1]; HEK 293T cells transfected with GR) read?
A: inhibited

Q: And the luciferase activity (NF-κB [1]; wild type HEK 293T cells (without GR))?
A: neither avicin D nor dexamethasone had an effect

Q: What about the “PKA-mediated CREB activity” value (3T3-L1 cells) of the same compound?
A: inhibited PKA-mediated CREB activity

Q: What about the “adipolysis and adipocyte apoptosis” value (3T3-L1 cells) of the same compound?
A: did not affect

Q: What about the preadipocyte differentiation (3T3-L1 cells) of the same compound?
A: suppressed preadipocyte differentiation

Q: And the adipogenesis (3T3-L1 cells; 3T3-L1 cells)?
A: inhibit adipogenesis

Q: And the intracellular triglyceride level (3T3-L1 cells; 3T3-L1 cells)?
A: reduce intracellular triglyceride level in a dose-dependent manner

Q: And the “expression and secretion of adiponectin” value (3T3-L1 cells; in adipocytes)?
A: increased the expression and secretion of adiponectin

Q: What about the Nrf2 activation [2] of the same compound?
A: activate NF-E2-related factor 2 (Nrf2)

Q: And the inhibition of chemotaxis (chemotaxis)?
A: effective at inhibiting chemotaxis at picomolar and nanomolar concentrations

Q: What about the “differentiation of human preadipocytes to mature adipocytes” value (human preadipocytes) of the same compound?
A: inhibited the differentiation of human preadipocytes to mature adipocytes

Q: And the intracellular triglyceride levels (human preadipocytes)?
A: reduced intracellular triglyceride levels

Q: And the NF-κB inhibition (NF-κB [3])?
A: inhibit NF-κB

Q: What about the “induction of cell cytotoxicity” value (cell cytotoxicity) of the same compound?
A: significant activity

Q: What about the “phosphorylation of Ser-211” value [4] of the same compound?
A: does not enhance phosphorylation of Ser-211

Q: What about the “activation of NF-κB” value (NF-κB [5]) of the same compound?
A: inhibits activation of NF-κB in a similar manner to dexamethasone

Q: And the “expression of constitutive and TNF-induced IL-6” value (IL-6)?
A: suppresses the expression of both constituitive and TNF-induced IL-6

Q: Which “induction of cell cytotoxicity” value (cell cytotoxicity) does the source give for C=C[C@](C)(O)CC/C=C(\C)C(=O)O[C@H]1[C@H](O)[C@@H](O)[C@H](O[C@@](C)(C=C)CC/C=C(\CO)C(=O)O[C@H]2C[C@]3(C(=O)O[C@@H]4O[C@H](CO)[C@@H](O)[C@H](O)[C@H]4O[C@@H]4O[C@@H](C)[C@H](O[C@@H]5O[C@@H](CO)[C@H](O)[C@H]5O)[C@@H](O[C@@H]5O[C@H](CO)[C@@H](O)[C@H](O)[C@H]5O)[C@H]4O)[C@H](O)C[C@]4(C)C(=CC[C@@H]5[C@@]6(C)CC[C@H](O[C@@H]7O[C@H](CO[C@@H]8O[C@H](C)[C@H](O)[C@H](O)[C@H]8O[C@@H]8OC[C@@H](O)[C@H](O)[C@H]8O)[C@@H](O)[C@H](O)[C@H]7NC(C)=O)C(C)(C)[C@@H]6CC[C@]54C)[C@@H]3CC2(C)C)O[C@@H]1C [avicin G] here?
A: significant activity
